Literature values in patent US20250082627A1, “TOBACCO HARM REDUCTION AND PAIN RELIEF PRODUCTS AND METHODS THEREOF” (Ready Mix Naturals, LLC, priority 2023, published 2025).

What was measured:
TRPV1 = TRPV1 (Homo sapiens, UniProt Q8NER1); conditions: among phytocannabinoids
TRPA1 = TRPA1 (Homo sapiens, UniProt O75762)
TRPV2 = target: T1, TRPV2 (Homo sapiens, UniProt Q9Y5S1); conditions: among phytocannabinoids
T1 sequence (Q9Y5S1 1-764): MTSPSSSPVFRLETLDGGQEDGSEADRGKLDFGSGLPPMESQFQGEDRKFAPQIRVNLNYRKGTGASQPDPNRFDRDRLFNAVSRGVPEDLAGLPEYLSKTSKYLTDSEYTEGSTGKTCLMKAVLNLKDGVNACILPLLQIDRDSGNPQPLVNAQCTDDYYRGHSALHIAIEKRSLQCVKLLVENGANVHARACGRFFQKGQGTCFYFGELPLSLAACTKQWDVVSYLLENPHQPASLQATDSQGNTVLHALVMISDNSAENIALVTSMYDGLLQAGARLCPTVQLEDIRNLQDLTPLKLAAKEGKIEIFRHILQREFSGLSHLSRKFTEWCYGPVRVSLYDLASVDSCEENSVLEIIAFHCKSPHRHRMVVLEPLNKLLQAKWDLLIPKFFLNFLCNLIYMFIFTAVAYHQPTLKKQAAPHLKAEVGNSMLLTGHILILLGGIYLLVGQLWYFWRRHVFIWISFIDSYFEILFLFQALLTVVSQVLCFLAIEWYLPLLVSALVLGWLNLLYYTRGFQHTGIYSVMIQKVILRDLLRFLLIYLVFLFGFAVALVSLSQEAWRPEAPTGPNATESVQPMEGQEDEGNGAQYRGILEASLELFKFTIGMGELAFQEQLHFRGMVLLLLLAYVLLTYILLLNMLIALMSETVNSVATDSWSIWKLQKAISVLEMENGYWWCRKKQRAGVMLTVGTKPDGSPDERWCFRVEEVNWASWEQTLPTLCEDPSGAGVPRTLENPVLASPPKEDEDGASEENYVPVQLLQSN

Sequence of TRPA1 (O75762 whole entry, species assumed): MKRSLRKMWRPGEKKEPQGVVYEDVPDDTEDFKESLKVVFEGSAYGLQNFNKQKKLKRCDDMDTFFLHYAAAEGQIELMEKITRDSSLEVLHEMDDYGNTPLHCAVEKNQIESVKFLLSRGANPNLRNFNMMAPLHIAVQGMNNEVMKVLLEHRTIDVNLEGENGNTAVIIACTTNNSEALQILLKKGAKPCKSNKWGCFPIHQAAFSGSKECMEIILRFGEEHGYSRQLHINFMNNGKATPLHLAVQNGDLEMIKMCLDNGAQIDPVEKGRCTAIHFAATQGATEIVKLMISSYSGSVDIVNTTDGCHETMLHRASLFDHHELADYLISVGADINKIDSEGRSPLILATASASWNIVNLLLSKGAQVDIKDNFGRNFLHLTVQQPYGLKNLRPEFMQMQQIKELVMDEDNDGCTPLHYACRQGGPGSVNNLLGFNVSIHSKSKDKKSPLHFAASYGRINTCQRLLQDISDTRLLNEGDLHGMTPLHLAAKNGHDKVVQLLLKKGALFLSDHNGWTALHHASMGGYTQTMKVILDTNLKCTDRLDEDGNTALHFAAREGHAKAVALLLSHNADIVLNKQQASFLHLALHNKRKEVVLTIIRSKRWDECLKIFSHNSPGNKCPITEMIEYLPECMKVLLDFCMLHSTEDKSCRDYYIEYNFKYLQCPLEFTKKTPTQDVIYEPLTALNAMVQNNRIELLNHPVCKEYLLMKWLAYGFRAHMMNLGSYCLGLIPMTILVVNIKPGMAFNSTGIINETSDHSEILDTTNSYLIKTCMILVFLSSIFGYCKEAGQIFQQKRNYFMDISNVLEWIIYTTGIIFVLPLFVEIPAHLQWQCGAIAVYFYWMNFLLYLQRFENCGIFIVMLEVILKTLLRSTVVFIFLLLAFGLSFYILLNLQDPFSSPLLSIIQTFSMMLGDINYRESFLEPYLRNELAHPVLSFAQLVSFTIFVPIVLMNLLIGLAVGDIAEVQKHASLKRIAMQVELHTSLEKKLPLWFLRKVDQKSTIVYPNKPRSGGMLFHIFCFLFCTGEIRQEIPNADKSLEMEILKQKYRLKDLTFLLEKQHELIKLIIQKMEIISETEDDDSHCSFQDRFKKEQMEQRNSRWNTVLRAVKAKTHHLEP
Sequence of TRPV1 (Q8NER1 whole entry, species assumed): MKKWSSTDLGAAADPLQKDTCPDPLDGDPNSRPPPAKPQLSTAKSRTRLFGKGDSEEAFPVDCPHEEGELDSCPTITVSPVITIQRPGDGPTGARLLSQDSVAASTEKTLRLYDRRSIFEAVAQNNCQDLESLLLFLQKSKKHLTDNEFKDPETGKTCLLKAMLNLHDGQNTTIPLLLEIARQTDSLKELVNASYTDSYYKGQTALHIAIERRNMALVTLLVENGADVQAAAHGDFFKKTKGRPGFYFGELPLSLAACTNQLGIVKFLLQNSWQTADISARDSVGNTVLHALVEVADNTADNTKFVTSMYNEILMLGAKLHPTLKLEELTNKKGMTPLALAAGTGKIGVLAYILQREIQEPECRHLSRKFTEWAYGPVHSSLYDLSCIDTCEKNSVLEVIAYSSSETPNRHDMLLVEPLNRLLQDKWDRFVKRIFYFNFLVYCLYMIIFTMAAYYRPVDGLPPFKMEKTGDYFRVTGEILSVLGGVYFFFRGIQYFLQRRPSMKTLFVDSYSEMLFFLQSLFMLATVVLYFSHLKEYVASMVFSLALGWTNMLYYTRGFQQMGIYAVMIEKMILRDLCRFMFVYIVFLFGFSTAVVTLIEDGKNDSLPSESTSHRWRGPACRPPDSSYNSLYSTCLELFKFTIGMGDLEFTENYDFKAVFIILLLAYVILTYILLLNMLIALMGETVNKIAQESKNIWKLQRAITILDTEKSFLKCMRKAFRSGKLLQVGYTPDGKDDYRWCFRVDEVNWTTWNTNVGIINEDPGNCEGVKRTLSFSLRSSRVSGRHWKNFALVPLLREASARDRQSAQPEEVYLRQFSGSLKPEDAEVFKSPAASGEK

C=C(C)[C@@H]1CCC(C)=C[C@H]1c1c(O)cc(CCCCC)cc1O [CBD, cannabidiol]
agonism of TRPV1 (TRPV1): most potent and efficacious phytocannabinoid agonist of TRPV1

CN1CCCC1c1cccnc1 (stereo not shown) [nicotine]
activation of TRPA1 (TRPA1): known activator of TRPA1

CCCCCc1cc(O)c2c(c1)OC(C)(C)[C@@H]1CCC(C)=C[C@@H]21 [Δ^9-THC, Δ^9-tetrahydrocannabinol]
activation of TRPA1 (TRPA1): also activates TRPA1 | activation of TRPV2 (TRPV2): most potent phytocannabinoid for activating TRPV2
